Results reported in ChEMBL document CHEMBL1201862, “PubChem BioAssay data set” (2004).
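Cultured in 96-well plates, cells were exposed to test compound for 48 hours across five concentrations. GI50 = concentration required for 50% inhibition of growth.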 Activity calls are given as the source filed them. Cut-off read from the data, not from the text of the source: active = GI50 up to about 1.1 µM and inactive = higher.

What was measured:
Experiment in all cases: NCI anticancer screen, dose series, 48 h
786-0 = tested on: 786-0
A498 = tested on: A498
A549 = tested on: A549
ACHN = tested on: ACHN
CAKI-1 = tested on: CAKI-1
CCRF-CEM = tested on: CCRF-CEM
COLO 205 = tested on: COLO 205
DLD-1 = tested on: DLD-1
DMS-273 = tested on: DMS-273
EKVX = tested on: EKVX
HCC 2998 = tested on: HCC 2998
HCT-116 = tested on: HCT-116
HCT-15 = tested on: HCT-15
HL-60 = tested on: HL-60
HOP-18 = tested on: HOP-18
HOP-62 = tested on: HOP-62
IGROV-1 = tested on: IGROV-1
K562 = tested on: K562
KM-20L2 = tested on: KM-20L2
KM12 = tested on: KM12
LXFL 529 = tested on: LXFL 529
M14 = tested on: M14
M19-MEL = tested on: M19-MEL
MOLT-4 = tested on: MOLT-4
Malme-3M = tested on: Malme-3M
NCI-H226 = tested on: NCI-H226
NCI-H460 = tested on: NCI-H460
NCI-H522 = tested on: NCI-H522
OVCAR-4 = tested on: OVCAR-4
OVCAR-8 = tested on: OVCAR-8
RPMI-8226 = tested on: RPMI-8226
RXF 393 = tested on: RXF 393
SF-268 = tested on: SF-268
SF-539 = tested on: SF-539
SK-MEL-28 = tested on: SK-MEL-28
SK-MEL-2 = tested on: SK-MEL-2
SK-MEL-5 = tested on: SK-MEL-5
SK-OV-3 = tested on: SK-OV-3
SN12C = tested on: SN12C
SNB-19 = tested on: SNB-19
SNB-75 = tested on: SNB-75
SNB-78 = tested on: SNB-78
SR = tested on: SR
SW-620 = tested on: SW-620
TK-10 = tested on: TK-10
U-251 = tested on: U-251
UACC-257 = tested on: UACC-257
UACC-62 = tested on: UACC-62
UO-31 = tested on: UO-31
DMS-114 = tested on: DMS-114
HOP-92 = tested on: HOP-92
HT-29 = tested on: HT-29
LOX IMVI = tested on: LOX IMVI
NCI-H23 = tested on: NCI-H23
OVCAR-3 = tested on: OVCAR-3
OVCAR-5 = tested on: OVCAR-5
SF-295 = tested on: SF-295

With `O=C(CN1C(=O)c2ccccc2C1=O)OC1C=CCCC1` (centres undefined) the GI50 (786-0) was > 100 µM (inactive), the GI50 (A498) was > 100 µM (inactive) and the GI50 (A549) was > 100 µM (inactive). The GI50 (ACHN) was > 100 µM (inactive), the GI50 (CAKI-1) was > 100 µM (inactive) and the GI50 (CCRF-CEM) was > 100 µM (inactive). For the same compound, the GI50 (COLO 205) was > 100 µM (inactive), the GI50 (DLD-1) was > 100 µM (inactive) and the GI50 (DMS-273) was > 100 µM (inactive). The GI50 (EKVX) was > 100 µM (inactive), the GI50 (HCC 2998) was > 100 µM (inactive) and the GI50 (HCT-116) was > 100 µM (inactive). The GI50 (HCT-15) was greater than 100 µM, the GI50 (HL-60) was > 100 µM (inactive) and the GI50 (HOP-18) was > 100 µM (inactive). The GI50 (HOP-62) was > 100 µM (inactive), the GI50 (IGROV-1) was > 100 µM (inactive) and the GI50 (K562) was > 100 µM (inactive). The GI50 (KM-20L2) was > 100 µM (inactive), the GI50 (KM12) was > 100 µM (inactive) and the GI50 (LXFL 529) was > 100 µM (inactive). The GI50 (M14) was > 100 µM (inactive), the GI50 (M19-MEL) was > 100 µM (inactive) and the GI50 (MOLT-4) was > 100 µM (inactive). For the same compound, the GI50 (Malme-3M) was > 100 µM (inactive), the GI50 (NCI-H226) was > 100 µM (inactive) and the GI50 (NCI-H460) was > 100 µM (inactive). The GI50 (NCI-H522) was 72.8 µM (inactive), the GI50 (OVCAR-4) was > 100 µM (inactive) and the GI50 (OVCAR-8) was > 100 µM (inactive). For the same compound, the GI50 (RPMI-8226) was > 100 µM (inactive), the GI50 (RXF 393) was > 100 µM (inactive) and the GI50 (SF-268) was > 100 µM (inactive). For the same compound, the GI50 (SF-539) was > 100 µM (inactive), the GI50 (SK-MEL-28) was > 100 µM (inactive) and the GI50 (SK-MEL-2) was > 100 µM (inactive). The GI50 (SK-MEL-5) was > 100 µM (inactive), the GI50 (SK-OV-3) was > 100 µM (inactive) and the GI50 (SN12C) was > 100 µM (inactive). The GI50 (SNB-19) was > 100 µM (inactive), the GI50 (SNB-75) was > 100 µM (inactive) and the GI50 (SNB-78) was > 100 µM (inactive). The GI50 (SR) was > 100 µM (inactive), the GI50 (SW-620) was > 100 µM (inactive) and the GI50 (TK-10) was > 100 µM (inactive). For the same compound, the GI50 (U-251) was > 100 µM (inactive), the GI50 (UACC-257) was > 100 µM (inactive) and the GI50 (UACC-62) was > 100 µM (inactive). The GI50 (UO-31) was > 100 µM (inactive).

`O=[N+]([O-])c1cc(/C=N/NS(=O)(=O)c2ccc(F)cc2)c(O)c([N+](=O)[O-])c1` was tested, and the GI50 (786-0) was 41.3 µM (inactive), the GI50 (A498) was 29.9 µM (inactive) and the GI50 (A549) was 48 µM (inactive). For the same compound, the GI50 (ACHN) was 40.5 µM (inactive), the GI50 (CAKI-1) was 76.2 µM (inactive) and the GI50 (CCRF-CEM) was 37.6 µM (inactive). For the same compound, the GI50 (COLO 205) was 18.9 µM (inactive), the GI50 (DLD-1) was 51.3 µM (inactive) and the GI50 (DMS-114) was 32.2 µM (inactive). The GI50 (DMS-273) was 30.8 µM (inactive), the GI50 (EKVX) was > 100 µM (inactive) and the GI50 (HCC 2998) was > 100 µM (inactive). For the same compound, the GI50 (HCT-116) was 33.7 µM (inactive), the GI50 (HCT-15) was 26.5 µM and the GI50 (HL-60) was 38.5 µM (inactive). For the same compound, the GI50 (HOP-18) was 85.3 µM (inactive), the GI50 (HOP-62) was 43.2 µM (inactive) and the GI50 (HOP-92) was 38.4 µM (inactive). For the same compound, the GI50 (HT-29) was 22.3 µM (inactive), the GI50 (IGROV-1) was 69.5 µM (inactive) and the GI50 (K562) was 41.2 µM (inactive). For the same compound, the GI50 (KM-20L2) was 25.9 µM (inactive), the GI50 (KM12) was 21 µM (inactive) and the GI50 (LOX IMVI) was 39.5 µM (inactive). For the same compound, the GI50 (M14) was 22.9 µM (inactive), the GI50 (M19-MEL) was 49.8 µM (inactive) and the GI50 (MOLT-4) was 21.9 µM (inactive). The GI50 (Malme-3M) was 63.1 µM (inactive), the GI50 (NCI-H23) was 24.9 µM (inactive) and the GI50 (NCI-H460) was 28.8 µM (inactive). For the same compound, the GI50 (NCI-H522) was 21.2 µM (inactive), the GI50 (OVCAR-3) was 29 µM (inactive) and the GI50 (OVCAR-4) was 58.1 µM (inactive). The GI50 (OVCAR-5) was > 100 µM (inactive), the GI50 (OVCAR-8) was 24.8 µM (inactive) and the GI50 (RPMI-8226) was 27.7 µM (inactive). The GI50 (RXF 393) was 36.6 µM (inactive), the GI50 (SF-268) was 40.1 µM (inactive) and the GI50 (SF-295) was 52.8 µM (inactive). For the same compound, the GI50 (SF-539) was 22 µM (inactive), the GI50 (SK-MEL-28) was 82.8 µM (inactive) and the GI50 (SK-MEL-2) was 45.2 µM (inactive). For the same compound, the GI50 (SK-MEL-5) was 25.7 µM (inactive), the GI50 (SK-OV-3) was 30.1 µM (inactive) and the GI50 (SN12C) was 33.7 µM (inactive). For the same compound, the GI50 (SNB-19) was 33.7 µM (inactive), the GI50 (SNB-75) was 25.9 µM (inactive) and the GI50 (SNB-78) was 52.6 µM (inactive). The GI50 (SR) was 18.4 µM (inactive), the GI50 (SW-620) was 41.3 µM (inactive) and the GI50 (TK-10) was 57.1 µM (inactive). For the same compound, the GI50 (U-251) was 23.8 µM (inactive), the GI50 (UACC-257) was 42.3 µM (inactive) and the GI50 (UACC-62) was 46.3 µM (inactive). The GI50 (UO-31) was > 100 µM (inactive).
